From patent publication US20150366252A1, “SWEETENER ENHANCERS AND METHODS FOR USING THE SAME” (International Flavors & Fragrances Inc., priority 2014, published 2015)

Test system: human panelists (sweet taste of glucose)
Experiment: Glucose enhancement test: paired-comparison human panelist taste test
Format: in vivo
Conditions: for glucose enhancement effects (overall statement): human panelist taste test, 7% glucose + 8 ppm compound; for glucose concentration perceived by panelists as equally sweet (as sweet as): composition of 7% glucose + 8 ppm compound
Experimental: Compounds 1-3 were tested for glucose sweetness enhancement by human panelist taste tests. Test samples containing the compound of interest were tasted in pairs by the panelist to determine which of the samples were sweeter. Binominal distribution for two-sided pair comparisons were used to determine the probability of the correct number of responses at α=0.05 (95% confidence level).

[1] = 7% glucose + 8 ppm compound vs 8.5% glucose
[2] = 7% glucose + 8 ppm compound vs 8.5% glucose, 12 panelists × 2 reps

**Q.** What does the source list for `Cc1nc2cccc(OCC(C)(C)C(=O)NC(C)C)c2c(N)c1C(=O)O` [FEMA 4774, reference compound]?
**A.** sweetness perceived by panelists relative to 7% glucose (7% glucose + 8 ppm compound vs 7% glucose): only being directionally sweeter; Total (sample selected as sweeter by panelists) (7% glucose + 8 ppm compound vs 7% glucose, 12 panelists × 2 reps): 17; glucose enhancement effects (overall statement): did not show significant glucose enhancement effects

**Q.** `CCCNC(=O)C(C)(C)COc1cccc2c1C(N)=NS(=O)(=O)N2` [FEMA 4701, reference compound] was tested. Which “Total (sample selected as sweeter by panelists)” value (7% glucose + 8 ppm compound vs 8% glucose, 12 panelists × 2 reps) did it give?
**A.** 13

**Q.** And the “sweetness perceived by panelists relative to 8.5% glucose” value [1]?
**A.** significantly less sweet

**Q.** What about the “Total (sample selected as sweeter by panelists)” value [2] of the same molecule?
**A.** 21

**Q.** What about the “glucose concentration perceived by panelists as equally sweet (as sweet as)” value of the same molecule?
**A.** 8 % glucose

**Q.** What about the “glucose enhancement effects (overall statement)” value of the same molecule?
**A.** only showed marginal glucose enhancement effects

**Q.** What does the source list for `NC1=NS(=O)(=O)Nc2cccc(OCC3(C(=O)NC4CCCC4)CCCNC3=O)c21` (stereo not shown) [Compound 1, 3-(((4-Amino-2,2-dioxido-1H-benzo[c][1,2,6]thiadiazin-5-yl)oxy)methyl)-N-cyclopentyl-2-oxopiperidine-3-carboxamide]?
**A.** sweetness perceived by panelists relative to 8.5% glucose [1]: significantly sweeter; Total (sample selected as sweeter by panelists) (7% glucose + 8 ppm compound vs 9.5% glucose, paired comparison): 17; Total (sample selected as sweeter by panelists) (7% glucose + 8 ppm compound vs 10% glucose, paired comparison): 11; Total (sample selected as sweeter by panelists) (7% glucose + 8 ppm compound vs 10.5% glucose, paired comparison): 6; glucose concentration perceived by panelists as equally sweet (as sweet as): 10 % glucose

**Q.** Which results are given for `NC1=NS(=O)(=O)Nc2cccc(OCC3(C(=O)NC4CCCCC4)CCCNC3=O)c21` (stereo not shown) [Compound 3, 3-(((4-amino-2,2-dioxido-1H-benzo[c][1,2,6]thiadiazin-5-yl)oxy)methyl)-N-cyclohexyl-2-oxopiperidine-3-carboxamide]?
**A.** sweetness perceived by panelists relative to 8.5% glucose [1]: significantly sweeter; Total (sample selected as sweeter by panelists) [2]: 21; Total (sample selected as sweeter by panelists) (7% glucose + 8 ppm compound vs 9% glucose, 12 panelists × 2 reps): 14; glucose concentration perceived by panelists as equally sweet (as sweet as): 9 % glucose

**Q.** Which “sweetness perceived by panelists relative to 8.5% glucose” value [1] does the source give for `CC(C)NC(=O)C1(COc2cccc3c2C(N)=NS(=O)(=O)N3)CCCNC1=O` (stereo not shown) [Compound 2, 3-(((4-amino-2,2-dioxido-1H-benzo-[c][1,2,6]thiadiazin-5-yl)oxy)methyl)-N-isopropyl-2-oxopiperidine-3-carboxamide] here?
**A.** significantly sweeter

**Q.** And the “Total (sample selected as sweeter by panelists)” value [2]?
**A.** 23
